Results as given in US20220135622A1, “ANTIBACTERIAL PEPTIDES AND METHODS OF USE” (priority 2019, published 2022).
“Also recorded” adds a separate entry of the source.

How the values were obtained:
E. coli BW25113 = format: cell-based, Escherichia coli; settings: for MIC E coli BW25113 + EDTA / MIC E. coli BW25113: Table 7; for MIC E. coli BW25113: no EDTA
How it was run: (§1)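 For MIC, bacteria (final OD600 ~0.0002) were incubated with 2-fold peptide dilutions (top 400–800 μM) in cation-adjusted MHB II with or without EDTA, 20 h at 37 °C, read by OD600. EDTA was 0.5 mM for E. coli and 0.125 mM for USA300. The growth-inhibition assay used log-phase cells at OD600 ~0.001, 4 h at 37 °C, BacTiter-Glo luminescence.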

E. coli ΔwaaD = experiment: MIC assay, E. coli ΔwaaD; format: cell-based, Escherichia coli; settings: Table 7; + EDTA
Procedure: (§2) Bacterial growth conditions. LB or Mueller Hinton II cation-adjusted broth (MHB II, BBL 212322) was prepared according to manufacturer's instructions and supplemented with arabinose at 0.02% for overnight growth or at indicated concentrations in the description of the figures. Bacterial cultures were grown at 37° C. When appropriate, media was supplemented with kanamycin (50 μg/mL), carbenicillin (50 μg/mL), chloramphenicol (12.5 or 25 μg/mL), hygromycin (200 μg/mL), and/or gentamicin (10 μg/mL).
(§3) Peptide sensitivity and MIC assays. Lyophilized peptides (Smartox Biotechnology, CPC Scientific. ABclonal) were solubilized to 10 mM in Tris buffer, pH 8, prior to making a 2-fold dilution series in MHBII cation adjusted broth with highest final assay concentration of 400-800 μM. Bacteria were grown to log phase and added to final OD600˜0.001. The final EDTA concentration was 0.5 mM for E. coli strains and 0.125 mM for USA300. The final volume of 10 μL/well in a 384 well black, clear bottom plate (Corning) was spun <1 min at <250×g and then incubated at 37° C. After 4 h, an equal volume (10 μL) of BacTiter-Glo™ (Promega) was added to each well and luminescence was read after 5 min on an EnVision plate reader (PerkinElmer). To measure the minimal inhibitory concentrations (MICs), bacteria from fresh overnight plates or log phase cultures were diluted with or without EDTA and peptides as described above to final OD600˜0.0002. Plates were incubated at 37° C. for 20 h before measuring OD600 with an EnVision plate reader.

E. coli imp4213 [1] = experiment: MIC assay, E. coli imp4213; format: cell-based, Escherichia coli; settings: Table 7
How it was run: as §1

S. aureus USA300 = experiment: MIC assay, S. aureus USA300; format: cell-based, Staphylococcus aureus; settings: Table 7
How it was run: as §1

[2] = Biolayer interferometry: captured biotinylated LAB peptides binding to phospholipids; set-up: species or system E. coli; settings: above background
Procedure: (§4) Biolayer interferometry. Phospholipid (Avanti polar lipids) and KDO2-lipid A (US Biological Life Sciences) stock solutions were prepared by resuspension into 25 mM Tris pH 8, 100 mM NaCl, 0.05% LMNG buffer and solubilized overnight at 4° C. Lipid stocks were diluted prior to experiments into 25 mM Tris pH 8, 100 mM NaCl, 0.5 mg/mL BSA, 0.05% LMNG. All assays were performed at 25° C. in 25 mM Tris pH 8, 100 mM NaCl, 0.5 mg/mL BSA, 0.05% LMNG. Biotinylated-LAB peptides were loaded onto SA biosensors to a response of approximately 0.5 nm. Binding to phospholipids and KDO2-lipid A was measured at concentrations of 150, 100, 50, 25, and 10 μM with 300s association and dissociation steps. Assays were performed in triplicate on an Octet Red384 (ForteBio) and buffer and lipid signals were subtracted by using a biotin-blocked reference streptavidin (SA) biosensor. Dissociation constants for LABWT and LABWT+, interactions with KDO2-lipidA were estimated by plotting response values at equilibrium as a function of concentration and fit to a global specific binding with Hill slope model in Prism (Graphpad Software).
Based on the intriguing chemical characteristics of the LPS-PbgA interface, the possibility that a linear peptide derived from PbgA might selectively bind to LPS in vitro was considered. […]

E. coli = experiment: Cell growth inhibition assay with or without EDTA; format: cell-based, Escherichia coli; settings: irrespective of the presence or absence of EDTA (0.5 mM)
Procedure: as §3
It was reasoned that the relatively large molecular weight (>2 kDa) and limited α-helical propensity of the linear LABWT peptide (SEQ ID NO: 1) might limit its access to LPS in the bacterial OM. […]

[3] = Biolayer interferometry: captured biotinylated LAB peptides binding to LPS (KDO2-lipid A); settings: for binding to LPS: interferometry, above background
Procedure: as §4
Based on the intriguing chemical characteristics of the LPS-PbgA interface, the possibility that a linear peptide derived from PbgA might selectively bind to LPS in vitro was considered. A peptide encompassing the lipid A-binding (LAB)-motif (209SYPMTARRFLEKHGLLD225; SEQ ID NO: 67) with an additional Gly-Ser-linker and biotin modification was generated and used in an interferometry-based assay. […] Two peptides intended to destabilize essential lipid A binding determinants were tested as controls.

E. coli ΔwaaD MCR-1 = experiment: MIC assay, E. coli ΔwaaD MCR-1; format: cell-based, Escherichia coli; settings: Table 7
Procedure: as §2, §3

E. coli ΔwaaD + vect. = experiment: MIC assay, E. coli ΔwaaD + vect.; format: cell-based, Escherichia coli; settings: Table 7
Procedure: as §2, §3

E. coli imp4213 [4] = experiment: Bacterial growth inhibition, E. coli imp4213; format: cell-based, Escherichia coli
Procedure: as §2
as §3, with “To measure the minimal inhibitory concentrations (MICs), bacteria from fresh overnight plates or log phase cultures were diluted with or without EDTA and peptides as described above to final OD600˜0.0002.” left out

E. coli+FhuAΔC/Δ4L = experiment: Bacterial growth inhibition, E. coli+FhuAΔC/Δ4L; format: cell-based, Escherichia coli
Procedure: as §2
as §3, with “To measure the minimal inhibitory concentrations (MICs), bacteria from fresh overnight plates or log phase cultures were diluted with or without EDTA and peptides as described above to final OD600˜0.0002.” left out

wild-type E. coli strain = experiment: Bacterial growth inhibition, wild-type E. coli strain; format: cell-based, Escherichia coli
Procedure: as §2
as §3, with “To measure the minimal inhibitory concentrations (MICs), bacteria from fresh overnight plates or log phase cultures were diluted with or without EDTA and peptides as described above to final OD600˜0.0002.” left out

E. coli mcr-1 = format: cell-based, Escherichia coli; settings: Table 6
How it was run: as §1

P. aeruginosa = format: cell-based, Pseudomonas aeruginosa; settings: Table 8
How it was run: as §1

A. baumannii = format: cell-based, Acinetobacter baumannii; settings: Table 8
How it was run: as §1

K. pneumoniae = format: cell-based, Klebsiella pneumoniae; settings: Table 8
How it was run: as §1

| Substance | MIC E coli BW25113 + EDTA (E. coli BW25113) | MIC E. coli ΔwaaD + EDTA (E. coli ΔwaaD) | MIC E. coli BW25113 (E. coli BW25113) | MIC E. coli imp4213 (E. coli imp4213 [1]) | MIC S. aureus USA300 (S. aureus USA300) | further results |
| --- | --- | --- | --- | --- | --- | --- |
| Ac-GSSYPMTARRFLEKWGLLR-NH2 (N-terminus and C-terminus assumed) [compound 5] | 400 µM | 100 µM |  |  |  |  |
| Ac-YPMTARRFLEKHGLL-NH2 [compound 11] | 400 µM | 400 µM | >800 µM | 200 µM | >800 µM |  |
| Ac-YPMTARRFLEKHGL-NH2 [compound 12] | 800 µM | 400 µM |  |  |  |  |
| GSSYPMTARRFLE (Ac-GSSYPMTARRFLE-NH2) [SEQ ID NO: 2] |  |  |  |  |  | binding to PLs [2]: Neither a peptide lacking the α7 helix (LABΔα7; SEQ ID NO: 2) nor a peptide containing the T213D mutation equivalent (LABT213D; SEQ ID NO: 3) showed detectable binding to LPS or PLs above background; effect on bacterial cell growth (E. coli): showed no effect on bacterial cell growth; binding to LPS ([3]; listed as LABΔα7): Neither a peptide lacking the α7 helix (LABΔα7; SEQ ID NO: 2) nor a peptide containing the T213D mutation equivalent (LABT213D; SEQ ID NO: 3) showed detectable binding to LPS or PLs above background; also recorded: failed to bind LPS in vitro |
| Ac-YPMTARRFLEKHGLLD-NH2 [compound 10] | 800 µM | >800 µM | >800 µM | 800 µM | >800 µM |  |
| Ac-GSSYPMTARRFLEKHGLLR-NH2 [compound 13] | 800 µM | 200 µM | >800 µM | 200 µM | >800 µM | MIC E coli ΔwaaD − MCR1 (E. coli ΔwaaD MCR-1): 200 µM; MIC E. coli ΔwaaD + vect. (E. coli ΔwaaD + vect.): 800 µM |
| GSSYPMTARRFLEKHGLLD [SEQ ID NO: 1] |  |  |  |  |  | growth inhibition (E. coli imp4213 [4]): significantly impacted the growth; growth inhibition (E. coli+FhuAΔC/Δ4L): significantly impacted the growth; growth inhibition (wild-type E. coli strain): failed to inhibit the growth; Kd ([3]; LPS (KDO2-lipid A), biotinylated peptide on SA biosensor, 25° C., estimated from equilibrium responses): ~75 µM; selective binding to LPS over PLs ([3]; versus the major PLs found in E. coli): bound LPS selectively over the major PLs |
| GSSYPMDARRFLEKHGLLD (Ac-GSSYPMDARRFLEKHGLLD-NH2) [SEQ ID NO: 3] |  |  |  |  |  | binding to PLs [2]: Neither a peptide lacking the α7 helix (LABΔα7; SEQ ID NO: 2) nor a peptide containing the T213D mutation equivalent (LABT213D; SEQ ID NO: 3) showed detectable binding to LPS or PLs above background; effect on bacterial cell growth (E. coli): showed no effect on bacterial cell growth; binding to LPS ([3]; listed as LABT213D): Neither a peptide lacking the α7 helix (LABΔα7; SEQ ID NO: 2) nor a peptide containing the T213D mutation equivalent (LABT213D; SEQ ID NO: 3) showed detectable binding to LPS or PLs above background; also recorded: failed to bind LPS in vitro |
| Ac-SSYPMTARRFLEKHGLLD-NH2 [compound 9] | >800 µM | >800 µM | >800 µM | 800 µM | >800 µM |  |
| Ac-GSSYPMTARRFLEKHGL-NH2 [compound 8] | 800 µM | 800 µM | >800 µM | 200 µM | >800 µM |  |
| Ac-GSSYPMTARRFLEKHGLL-NH2 [compound 7] | 400 µM | 400 µM | >800 µM | 200/400 | >800 µM |  |
| Polymyxin B [reference compound] |  |  |  |  |  | Polymyxin B MIC (E. coli BW25113; Table 6, E. coli K-12 wild-type parent BW25113): 0.2 µM; Polymyxin B MIC (E. coli mcr-1): 12.5 µM |
| Ac-GSSYPMTARRFLEKWGLLD-NH2 [compound 6] | 800 µM | >800 µM | >800 µM | 400 µM | >800 µM |  |
| Ac-YPMTARRYLEKWGLLR-NH2 [compound 56] |  |  | >400 µM | 25 µM | >400 µM | MIC E coli ΔwaaD − MCR1 (E. coli ΔwaaD MCR-1): 800 µM; MIC R. aeruginosa (P. aeruginosa): 800 µM; MIC E. coli ΔwaaD + vect. (E. coli ΔwaaD + vect.): 400 µM; MIC A. baumannii (A. baumannii): 400 µM; MIC K. pneumoniae (K. pneumoniae): 800 µM |
